Values of other authors as cited in US11857553B2, “Chromium containing compositions for improving health and fitness” (NUTRITION 21, LLC, priority 2016, dated 2024).

How the values were obtained:
[1] = rats, several thousand times the upper limit of the ESADDI for chromium for humans
chromium absorption = details: orally administered CrCl3

Compound	toxicity [1]	effect on chromium absorption (chromium absorption)
chromium picolinate	without toxic effects	
[Cl][Cr]([Cl])[Cl] [chromium chloride]	without toxic effects	
CC(=O)Oc1ccccc1C(=O)O [aspirin]		facilitate chromium absorption
COc1ccc2c(c1)c(CC(=O)O)c(C)n2C(=O)c1ccc(Cl)cc1 [indomethacin]		facilitate chromium absorption
